Measured values taken from patent publication US5004593A (Mayo Foundation for Medical Education and Research, priority 1989, dated 1991).
Entries after “also recorded” stand apart in the source; their conditions may differ. Counter-ions that a name gives are not always drawn.

Tests used:
[1] = cited from earlier work
[2] = oral administration, man; cited from earlier work
[3] = test system: refractory tumors; experiment: Phase I clinical trial, tumor response to intravenous HMM; type: in vivo, human (cancer patients); conditions: i.v.
Method: Eighteen patients were treated on the one day every four weeks schedule and 28 patients were treated on the daily ×5 four weeks schedule. Tumors included lung, colorectal, gastric, breast, ovarian, renal, bladder, parotide, hepatic, small bowel, thyroid, fibrosarcoma and fibroblastic osteosarcoma. Forty-five of 47 patients had received prior chemotherapy and/or radiotherapy. All patients had histologic or cytologic confirmation of unresectable cancer for which there was no conventional means of therapy that offered reasonable hope of cure or of significant palliation. All patients were ambulatory and in a reasonable state of nutrition. Patients were required to have WBC count ≥4,000/mm^2, platelet count ≥130,000 m^2, hemoglobin ≥10 g/dl, serum creatinine ≤1.5 mg/dl, ECOG performance status <3, fasting serum triglycerides ≤500 mg/dl. […]
Tests done prior to entry into study included a history, physical examination and tumor measurement whenever possible, WBC count, hemoglobin, platelet count, chest x-ray, electrocardiogram, electroencephalogram, urine analysis, triglycerides, SGOT, and serum creatinine. […] Triglycerides were determined before and after each HMM treatment. […]

[4] = test system: ovarian adenocarcinoma, metastatic small cell carcinoma of the lung, metastatic breast cancer and refractory lymphoma; conditions: single agent clinical trials; cited from earlier work
[5] = clinical; cited from earlier work
[6] = Phase I plasma and urine pharmacokinetics of intravenous HMM in Intralipid 10% (GC assay); type: in vivo, human (cancer patients)
Method: (§1) Eighteen patients were treated on the one day every four weeks schedule and 28 patients were treated on the daily ×5 four weeks schedule. Tumors included lung, colorectal, gastric, breast, ovarian, renal, bladder, parotide, hepatic, small bowel, thyroid, fibrosarcoma and fibroblastic osteosarcoma. Forty-five of 47 patients had received prior chemotherapy and/or radiotherapy. All patients had histologic or cytologic confirmation of unresectable cancer for which there was no conventional means of therapy that offered reasonable hope of cure or of significant palliation. All patients were ambulatory and in a reasonable state of nutrition. Patients were required to have WBC count ≥4,000/mm^2, platelet count ≥130,000 m^2, hemoglobin ≥10 g/dl, serum creatinine ≤1.5 mg/dl, ECOG performance status <3, fasting serum triglycerides ≤500 mg/dl. Patients were excluded if they presented with uncontrolled infections, persistent (daily) nausea and/or vomiting, significant chronic obstructive pulmonary disease, any neurologic impairment, major surgery within the proceeding 30 days, radiation to >15% of the bone marrow within 30 days or radiation to total area >30% of bone marrow at any time.
(§2) Tests done prior to entry into study included a history, physical examination and tumor measurement whenever possible, WBC count, hemoglobin, platelet count, chest x-ray, electrocardiogram, electroencephalogram, urine analysis, triglycerides, SGOT, and serum creatinine. Between courses of treatment, the hematology group was checked twice weekly and the hemoglobin, SGOT and serum creatinine once weekly. Triglycerides were determined before and after each HMM treatment. Patients were entered in groups of three at each dose level. New patients were entered at a higher dose level only after the three patients treated at the previous level had been observed for a minimum of three weeks, counting from the last day of treatment. Patients not having significant toxicity at a given dose level were retreated at the next higher dose level but a minimum of three patients who never received HMM were entered at each escalation on each schedule. Dose levels on the daily ×5 schedule were […]. Dose increments for the one-day schedule were 360, 540, 675, 750, 844, and 1,000 mg/m^2.
(§3) Unit dose amounts of drug, Intralipid 10%®, and diluents were changed as dose levels of HMM increased throughout the study. At doses which will be relevant for Phase II evaluation of the parenteral formulation, the following drug preparation scheme was employed. The Mayo Comprehensive Cancer Center Pharmacy weighed 500 mg portions of bulk HMM into sterile vials. HMM was dissolved in 0.1 N hydrochloric acid (sterile HCl for parenteral administration, USP) by adding 27.50 ml of the 0.1 N HCl to each 500 mg vial. The concentration of this solution was 18.2 mg HMM.HCl/ml. The volume of the HMM.HCl solution to be drawn up for each patient was determined by dividing the patient dose level by 18.2 (e.g., for a 750 mg dose, 750 mg divided by 18.2 mg/ml =41.2 ml of the HMM.HCl solution withdrawn from the vial). A 0.22 micron filter assembly was fitted to the syringe containing the appropriate HMM.HCl solution. The volume was filtered into a 500 ml empty sterile and sealed vial. Thus, the correct patient dose was placed in the evacuated vial. An equal volume of air was withdrawn from the sealed vial to maintain vacuum.
(§4) The amount of Intralipid 10%® to be added was determined by dividing the dose by 5.1 (e.g. 750 divided by 5.1=147 ml). The appropriate volume of Intralipid 10%® was added to the 500 ml vial containing the HMM.HCl solution. […]

[7] = Phase I clinical trial, toxicity of intravenous HMM; type: in vivo, human (cancer patients)
Method: as §1, §2, §3, §4

[8] = HMM concentration in formulation before and after filtration (% theoretical) and precipitation; type: physicochemical; conditions: for % Theoretical HMM Concentration, After Filter: 0.45μ filter
Method: as §3
The amount of Intralipid 10%® to be added was determined by dividing the dose by 5.1 (e.g. 750 divided by 5.1=147 ml). The appropriate volume of Intralipid 10%® was added to the 500 ml vial containing the HMM.HCl solution. Finally, the volume of sodium bicarbonate (sodium bicarbonate for parenteral injection, USP, 1 mEq/ml) was determined by the formula of 0.1 ml sodium bicarbonate for every 20 mg of HMM to be administered (e.g., 750 mg divided by 20=37.5×0.1 ml =3.75 ml sodium bicarbonate). This provided approximately a 4 mg/ml solution of HMM-Intralipid 10%®. A vented tubing set was added to the bottle with the patient's dose. A particulate filter (4.5 micron) was attached to an 18 gauge needle and the filter and needle were placed on the tubing to fill the 500 ml empty bag. The drug was administered at a rate of 2 ml/min or 8 mg/min. Thus, infusion time was lengthened as dose levels increased maintaining a constant rate of drug administration. Fifty (50) ml of normal saline was infused following completion of the HMM infusion.
Details of drug preparation are described in the Methods section while a summary of the formulation procedure is shown in Table 1, below.
This modification of the initial formulation reported in Cancer Treat. Rep., 66, 1579 (1982) to first dissolve the HMM in aqueous HCl, eliminated the use of a toxic organic solvent (ethanol or dimethylacetamide) while ensuring complete and uniform mixing of drug with Intralipid 10%®. Assessment of the formulated product was determined at each step of the procedure by measuring HMM concentrations before and after filtration through 0.45 micron filters (Intralipid 10%® average particle size is approximately 0.40 micron). […] HMM concentrations following filtration of such mixtures yielded <5% of the theoretical HMM concentration.

[9] = oral administration, rabbits; due to extensive first-pass metabolism rather than poor absorption; cited from earlier work
[10] = man; cited from earlier work
[11] = i.v., dogs, one specific HMM hydrochloride preparation; cited from earlier work
[12] = 540 mg/m^2 i.v., three-compartment open model
[13] = i.v., one-day or daily ×5 schedules
[14] = after NaHCO3 (1 mEq/ml) 0.1 ml:5 ml, ca. 4 mg/ml
[15] = dissolved in 0.1 N HCl, ca. 20 mg/ml

CN(C)c1nc(N(C)C)nc(N(C)C)n1 [HMM, 2,4,6-tris(dimethylamino)-1,3,5-triazine]
solubility in water and nontoxic solvents [1]: very limited solubility in water and nontoxic solvents | plasma concentrations of parent drug [2]: Low and variable plasma concentrations of parent drug | tumor responses [3]: No objective responses; also recorded: no tumor responses were observed | active against cancers [4]: active against a number of cancers including ovarian adenocarcinoma, metastatic small cell carcinoma of the lung, metastatic breast cancer and refractory lymphoma | delayed toxicity [5]: moderate anemia, thrombocytopenia, leukopenia, and a peripheral neuropathy | main acute adverse effects [5]: Nausea and vomiting | peripheral neuropathy, symptoms [5]: parethesias, hypesthesias, motor weakness, and other sensory alterations | steady state volume of distribution [6, 12]: 460 1/m^2 | steady state volume of distribution (Vdss) [6, 12]: 460 l/m^2 | terminal half-life [6, 12]: 10.4 h | total body clearance (ClTB) [6, 12]: 0.75 1/min/m^2 | accumulation during five-day treatment ([6]; 945 mg/m^2, daily ×5): disproportionate accumulation | observed vs predicted (simulated) 24 hour trough plasma concentrations ([6]; 945 mg/m^2, daily ×5): significantly greater than predicted | accumulation during five-day treatment ([6]; 945 mg/m^2, daily ×5, listed as hexamethylmelamine): possible saturation of parent drug elimination | observed vs predicted (simulated) 24 hour trough plasma concentrations ([6]; 506 and 632 mg/m^2, daily ×5): in agreement with predicted values | Twenty-four hour urinary recoveries of parent drug ([6]; 24 h, all patients): less than one | HMM 24 hours following each dose ([6]; daily ×5 schedule, plasma): detected | change of 24 hour drug concentration over days ([6]; daily ×5 schedule, plasma): increased each day | Cmax ([6]; human, iv, 540 mg/m^2 one-day schedule, five patients, plasma, read-out: Peak concentrations of HMM at the end of infusion): 2550 to 9350 ng/mL | half-life ([6]; human, plasma, iv, 540 mg/m^2 i.v., three-compartment open model, read-out: terminal half-life (converted)): 10.4 h | dose excreted at 24 h ([6]; human, urine, iv, 24 h, read-out: 24 hour urinary recovery of parent drug): < 1% | plasma levels / plasma AUC compared with oral administration ([6]; i.v. vs oral): Substantially higher plasma AUC values | consistency of plasma concentrations compared with oral ([6]; i.v. vs oral (D'Incalci)): more consistent plasma concentrations | demethylated urinary metabolites ([6]; urine): Demethylated urinary metabolites including penta-, tetra-, tri-, and di-methylmelamines were detected in urine | white blood cell counts ([7]; all patients): ≥ 3,000 /μl | maximally tolerated dose ([7]; daily ×5 schedule, i.v.): ~630 mg/m^2 /day | maximum-tolerated doses ([7]; five days in a row every four weeks): 500-600 mg/m^2 /day | myelosuppression ([7]; i.v.): minimal myelosuppression | peripheral neuropathy compared with oral administration ([7]; i.v. aqueous fat emulsion vs same amount orally): reduced from the level observed when the same amount of HMM is administered orally | CNS toxicity, peripheral neuropathy [7, 13]: no CNS toxicity, specifically peripheral neuropathy, was noted in any patients | dose-limiting toxicity [7, 13]: nausea and vomiting | platelet nadir below 100,000/μl (one patient) ([7]; one-day administration of 540 mg/m^2): 75,000 /μl | hematologic toxicities ([7]; one-day or five-day regimen): no significant hematologic toxicities | maximally tolerated dose ([7]; one-day schedule, i.v.): approximately 850 mg/m^2 | % Theoretical HMM Concentration, After Filter ([8]; after Intralipid 10% added 4 ml:1 ml, ca. 4 mg/ml): 100% | % Theoretical HMM Concentration, Before Filter [8, 14]: 100% | % Theoretical HMM Concentration, After Filter [8, 14]: 100% | % Theoretical HMM Concentration, Before Filter [8, 15]: 100% | % Theoretical HMM Concentration, After Filter [8, 15]: 100% | HMM concentration in the final filtered product, % of theoretical ([8]; final product, 0.45 micron filter): 90-95% | bioavailability [9]: poor bioavailability

CN(C)c1nc(N(C)C)nc(N(C)C)n1 [HMM hydrochloride]
local irritation and phlebitis [10]: severe local irritation and phlebitis | tolerability, intravenous [11]: well-tolerated
